In brackets after ≈: the same amount, converted by molar mass. Like-named read-outs stand apart in the source and are kept apart here.
Assays:
[1] = system: corpus of stomach; assay: Gastric cytoprotection effect (lesion length / ulcer index after oral 0.2N NaOH); type: in vivo; conditions: 1 h, 30 min before oral 0.2N NaOH, lesion measured one hour later, read-out: Gastric cytoprotection effect ED50 (dose reducing the sore to 50% of control)
Description: Gastric cytoprotection effect
Gastric cytoprotection effect was studied according to the method by A. Robert (Gastroenterology, 77(3), 443, (1979)). Thirty min. after oral administration of the compound according to the invention, 0.2N NaOH was orally applied to the animals.
One hour later, the animals were killed under anesthesia by chloroform. The stomach was removed and fixed in a solution of 5% formalin. After fixation, the stomach was cut along the greater curvature. A total length of the lesion appearing on the corpus of stomach was then measured and served as an ulcer index.
The dose of the compound which may reduce the sore to 50% of that of the control was designated as ED50.
The gastric cytoprotection effects of the compounds according to the invention, which is thus represented by ED50, are summarized in Table 1.

[2] = system: gastric acid secretion; assay: Inhibiting effect of gastric acid secretion, pylorus-ligated rat (Shay); type: in vivo; conditions: pylorus ligation, injected into duodenum, 5 hours
Method: (§1) Inhibiting effect of gastric acid secretion
Under anesthesia by ether, the abdomen of the rat was incised in its median and a pylorus was ligated with silk thread according to Shay (Gastroenterology 5, 43 (1945)). Simultaneously, the compound was injected into a duodenum of the rat and then the incision was closed.
Five hours later, the median-incision of the abdomen was again performed and the esophargus was ligated and then the whole stomach was removed.
The stomach was cut along a greater curvature and the contents thereof was transferred into a graduated centrifuge tube. After centrifugation at 3,000 rpm for 10 min., a volume of a gastric juice was measured and a part of its supernatant was titrated to pH 7 with 0.1N NaOH using a pH-stat (Radio meter).
The mean dose of the compounds which may reduce the volume of gastric juice (ml) and acidity (mEq/ml) of a group of five animals to 50% of that of the controls were designated respectively as ED50.

[3] = system: gastric acid secretion; assay: Inhibiting effect of gastric acid secretion, perfused stomach, pentagastrin-stimulated (Ghosh & Schild); type: in vivo, male SD rat; conditions: urethane-anesthetized SD rat, pentagastrin 0.05 μg/kg/min, injected through femoral vein; ratio of area index to that of PGE2
Method: as §1
A male SD rat was incised in the abdomen under anesthesia by urethane and the lumen of a stomach was perfused with a physiolosical saline solution through a double-cannula inserted into a lumen of the stomach. A pH of a draining gastric acid was monitored using a pH-meter (M. Ghosh, H. Schild, Br. J. Pharmacol. 13, 54 (1958)). The secretion of gastric acid was stimulated by a continuous infusion of the pentagastrin at a rate of 0.05 μg/kg/min. When the pH of gastric acid became stable value of about 4, the compound was injected through a femoral vein. As an index of the inhibiting effect of gastric acid secretion by the compound was calculated from the area surrounded by the curve drawn by the time course of the pH of gastric acid, from the point increase by the injection of the compound and to the point it came back to baseline. The index thus obtained was compared to that of PGE2 and a ratio therebetween was shown in Table 3, as a relative effect of the compound.

[4] = system: platelet aggregation; assay: Inhibiting effect of platelet aggregation (ADP-induced, human platelet-rich plasma); type: cell-based; conditions: human PRP, compound added one minute before ADP
Method: Inhibiting effect of platelet aggregation
The blood taken from a human median cubital vein was centrifuged at 800 rpm for 10 min. and a supernatant thereof was used as a platelet-rich plasma (PRP). An aliquot of PRP thus obtained was put into a small tube, to which […] (ADP) was added to induce platelet aggregation. The extent of aggregation was determined by detecting a change in turbidity of the aliquot by an apparatus for measuring platelet aggregation (Rika-Denki, Tokyo). The compound was added one minute before the addition of ADP. The concentration of the compound which may reduce the platelet aggregation, 50% of the control was designated as IC50.

[5] = system: blood pressure of the carotid; assay: Hypotensive effect (carotid blood pressure, anesthetized rat); type: in vivo; conditions: chloralose-anesthetized Wistar male rat, injected via catheter connected to femoral artery; read-out: Hypotensive effect ED25 (dose reducing blood pressure by 25 mmHg)
Method: A catheter was inserted to a carotid of the Wistar male rat under chloralose anesthesia. Another end of the catheter was connected to a polygraph with a pressure-transducer to detect a blood pressure of the carotid. The compound was injected via catheter connected to a femoral artery. The dose of the compound which may reduce the blood pressure in an amount of 25 mmHg was designated as ED25.

[6] = acidity (mEq/ml) to 50% of controls, read-out: Inhibiting effect of gastric acid secretion ED50, Acidity
[7] = volume (ml) to 50% of controls, read-out: Inhibiting effect of gastric acid secretion ED50, Volume of the gastric juice

| Structure (SMILES) | ED50 [1] [µg/kg] | ED50 [2, 6] [µg/kg] | ED50 [2, 7] [µg/kg] | Inhibiting effect of gastric acid secretion, Relative effect (PGE2 = 1) [3] | IC50 [4] [ng/mL] | ED (25 mmHg) [5] [µg/kg] |
| --- | --- | --- | --- | --- | --- | --- |
| CCCCC[C@H](O)/C=C/[C@@H]1[C@H]2c3cccc(OCC(=O)O)c3O[C@H]2C[C@H]1O (relative stereo) [Compound 156, 2,5,6,7-Tetranor-4-oxa-4,8-inter-m-phenylene PGI2] | 11.3 | 2330 | 330 | 39 | 0.56 (≈ 1.49 nM) | 0.46 |
| CCC(C)(C)[C@H](O)/C=C/[C@@H]1[C@H]2c3cccc(OCC(=O)O)c3O[C@H]2C[C@H]1O (relative stereo) [Compound 172, 16,16-Dimethyl-2,5,6,7,19,20-hexanor-4-oxa-4,8-inter-m-phenylene PGI2] | 4.6 | – | – | 19 | 2.1 (≈ 5.58 nM) | 0.72 |
| CCCCCC(C)(C)[C@H](O)/C=C/[C@@H]1[C@H]2c3cccc(OCC(=O)O)c3O[C@H]2C[C@H]1O (relative stereo) [Compound 184, 16,16-Dimethyl-20a-homo-2,5,6,7-tetranor-4-oxa-4,8-inter-m-phenylene PGI2] | 2.3 | – | – | 85 | 24 (≈ 57.3 nM) | 0.5 |
| CCCCCCC(C)(C)[C@H](O)/C=C/[C@@H]1[C@H]2c3cccc(OCC(=O)O)c3O[C@H]2C[C@H]1O (relative stereo) [Compound 188, 16,16-Dimethyl-20a,20b-dihomo-2,5,6,7-tetranor-4-oxa-4,8-inter-m-phenylene PGI2] | 2.8 | – | – | 23 | 6.9 (≈ 16 nM) | 1.5 |
| CCCCCCCC(C)(C)[C@H](O)/C=C/[C@@H]1[C@H]2c3cccc(OCC(=O)O)c3O[C@H]2C[C@H]1O (relative stereo) [Compound 192, 16,16-Dimethyl-20a,20b,20c-trihomo-2,5,6,7-tetranor-4-oxa-4,8-inter-m-phenylene PGI2] | 3.9 | – | – | 0.7 | 8 (≈ 17.9 nM) | 0.59 |
| CCCC(C)(C)C[C@H](O)/C=C/[C@@H]1[C@H]2c3cccc(OCC(=O)O)c3O[C@H]2C[C@H]1O (relative stereo) [Compound 200, 17,17-Dimethyl-2,5,6,7-tetranor-4-oxa-4,8-inter-m-phenylene PGI2] | 3.6 | – | – | 3.0 | 0.37 (≈ 0.915 nM) | 0.16 |
| CCCCC(C)[C@H](O)/C=C/[C@@H]1[C@H]2c3cccc(OCC(=O)O)c3O[C@H]2C[C@H]1O (relative stereo) [Compound 208, 16-Methyl-2,5,6,7-tetranor-4-oxa-4,8-inter-m-phenylene PGI2] | 0.92 | 270 | 140 | 45 | 0.47 (≈ 1.2 nM) | 0.074 |
| CCCCCC(C)(O)/C=C/[C@@H]1[C@H]2c3cccc(OCC(=O)O)c3O[C@H]2C[C@H]1O (relative stereo) [Compound 210, 15-Methyl-2,5,6,7-tetranor-4-oxa-4,8-inter-m-phenylene PGI2] | 109 | – | – | 13 | 30 (≈ 76.8 nM) | 0.89 |
| O=C(O)COc1cccc2c1O[C@H]1C[C@@H](O)[C@H](/C=C/[C@@H](O)C3CCCC3)[C@@H]21 (relative stereo) [Compound 230, 15-cyclopentyl-2,5,6,7,16,17,18,19,20-nonanor-4-oxa-4,8-inter-m-phenylene PGI2] | 9.74 | 880 | 330 | 1.4 | 0.19 (≈ 0.507 nM) | 0.094 |
| O=C(O)COc1cccc2c1O[C@H]1C[C@@H](O)[C@H](/C=C/[C@@H](O)C3CCCCC3)[C@@H]21 (relative stereo) [Compound 234, 15-cyclohexyl-2,5,6,7,16,17,18,19,20-nonanor-4-oxa-4,8-inter-m-phenylene PGI2] | 12.4 | 880 | 86 | 4.1 | 0.26 (≈ 0.669 nM) | 0.34 |
| O=C(O)COc1cccc2c1O[C@H]1C[C@@H](O)[C@H](/C=C/[C@@H](O)CC3CCCC3)[C@@H]21 (relative stereo) [Compound 238, 16-cyclopentyl-2,5,6,7,17,18,19,20-octanor-4-oxa-4,8-inter-m-phenylene PGI2] | 4.9 | – | – | 11 | 0.24 (≈ 0.618 nM) | 0.14 |
| O=C(O)COc1cccc2c1O[C@H]1C[C@@H](O)[C@H](/C=C/[C@@H](O)CC3CCCCC3)[C@@H]21 (relative stereo) [Compound 241, 16-cyclohexyl-2,5,6,7,17,18,19,20-octanor-4-oxa-4,8-inter-m-phenylene PGI2] | 8.17 | 2800 | 1800 | 2.1 | 12 (≈ 29.8 nM) | 0.083 |
| Cc1ccccc1[C@H](O)/C=C/[C@@H]1[C@H]2c3cccc(OCC(=O)O)c3O[C@H]2C[C@H]1O (relative stereo) [Compound 266, 15-(o-methylphenyl)-2,5,6,7,16,17,18,19,20-nonanor-4-oxa-4,8-inter-m-phenylene PGI2] | 31.2 | – | – | 7.2 | 2.3 (≈ 5.8 nM) | 0.32 |
| Cc1ccc([C@H](O)/C=C/[C@@H]2[C@H]3c4cccc(OCC(=O)O)c4O[C@H]3C[C@H]2O)cc1 (relative stereo) [Compound 270, 15-(p-methylphenyl)-2,5,6,7,16,17,18,19,20-nonanor-4-oxa-4,8-inter-m-phenylene PGI2] | 25.5 | – | – | 16 | 1.6 (≈ 4.04 nM) | 0.12 |
| CCOCC(C)(C)[C@H](O)/C=C/[C@@H]1[C@H]2c3cccc(OCC(=O)O)c3O[C@H]2C[C@H]1O (relative stereo) [Compound 305, 16,16-Dimethyl-2,5,6,7-tetranor-4,18-dioxa-4,8-inter-m-phenylene PGI2] | 13.1 | – | – | 99 | 90 (≈ 221 nM) | 0.55 |
